Laboratory results as given in ChEMBL document CHEMBL4715821, “Discovery of 4-ethoxy-7H-pyrrolo[2,3-d]pyrimidin-2-amines as potent, selective and orally bioavailable LRRK2 inhibitors” (Bioorg Med Chem Lett, 2018).

Legend:
[1] = molecular target: Voltage-gated inwardly rectifying potassium channel KCNH2 (Homo sapiens, UniProt Q12809); test: Inhibition of human ERG
[2] = molecular target: Activin receptor type-1B (Homo sapiens) (UniProt P36896); test: Inhibition of wild-type human ACVR1B (S187 to I505 residues) expressed in bacterial expression system assessed as residual activity at 1 uM by Kinomescan method relative to control
[3] = molecular target: Mast/stem cell growth factor receptor Kit (Homo sapiens) (UniProt P10721); test: Inhibition of c-kit (unknown origin) assessed as residual activity at 1 uM relative to control
[4] = molecular target: Proto-oncogene tyrosine-protein kinase Src (Homo sapiens) (UniProt P12931); test: Inhibition of wild-type human partial length c-Src (M1 to L450 residues) expressed in bacterial expression system assessed as residual activity at 1 uM by Kinomescan method relative to control
[5] = molecular target: CDK1/Cyclin A (Homo sapiens) (UniProt P06493+P20248); test: Inhibition of wild-type human full length CDK1 (M1 to M297 residues) /Cyclin A expressed in mammalian expression system assessed as residual activity at 1 uM by Kinomescan method relative to control
[6] = molecular target: Cyclin-dependent kinase 2/cyclin E1 (Homo sapiens) (UniProt P24864+P24941); test: Inhibition of wild-type human full length CDK2 (M1 to L298 residues)/Cyclin E expressed in bacterial expression system assessed as residual activity at 1 uM by Kinomescan method relative to control
[7] = molecular target: Casein kinase I isoform gamma-3 (Homo sapiens) (UniProt Q9Y6M4); test: Inhibition of CK1g3 (unknown origin) assessed as residual activity at 1 uM by Kinomescan method relative to control
[8] = molecular target: Discoidin domain-containing receptor 2 (Homo sapiens) (UniProt Q16832); test: Inhibition of wild-type human partial length DDR2 (V555 to E855 residues) expressed in mammalian expression system assessed as residual activity at 1 uM by Kinomescan method relative to control
[9] = molecular target: Ephrin type-B receptor 1 (Homo sapiens) (UniProt P54762); test: Inhibition of wild-type human partial length EPHB1 (P589 to T911 residues) expressed in bacterial expression system assessed as residual activity at 1 uM by Kinomescan method relative to control
[10] = molecular target: Ephrin type-B receptor 3 (Homo sapiens) (UniProt P54753); test: Inhibition of wild-type human partial length EPHB3 (Q599 to T928 residues) expressed in bacterial expression system assessed as residual activity at 1 uM by Kinomescan method relative to control
[11] = molecular target: Mitogen-activated protein kinase 3 (Homo sapiens) (UniProt P27361); test: Inhibition of wild-type human full length ERK1 (M1 to P379 residues) expressed in bacterial expression system assessed as residual activity at 1 uM by Kinomescan method relative to control
[12] = molecular target: Fibroblast growth factor receptor 4 (Homo sapiens) (UniProt P22455); test: Inhibition of wild-type human partial length FGFR4 (G402 to E713 residues) expressed in bacterial expression system assessed as residual activity at 1 uM by Kinomescan method relative to control
[13] = molecular target: Tyrosine-protein kinase Fgr (Homo sapiens) (UniProt P09769); test: Inhibition of wild-type human partial length FGR (L233 to T529 residues) expressed in bacterial expression system assessed as residual activity at 1 uM by Kinomescan method relative to control
[14] = molecular target: Mitogen-activated protein kinase kinase kinase kinase 2 (Homo sapiens) (UniProt Q12851); test: Inhibition of wild-type human partial length MAP4K2 (M1 to G318 residues) expressed in mammalian expression system assessed as residual activity at 1 uM by Kinomescan method relative to control
[15] = molecular target: Inhibitor of nuclear factor kappa-B kinase subunit epsilon (Homo sapiens) (UniProt Q14164); test: Inhibition of wild-type human full length IKK-epsilon (M1 to V716 residues) expressed in mammalian expression system assessed as residual activity at 1 uM by Kinomescan method relative to control
[16] = molecular target: MAP kinase-activated protein kinase 2 (Homo sapiens) (UniProt P49137); test: Inhibition of wild-type human partial length MAPKAPK2 (V48 to D345 residues) expressed in bacterial expression system assessed as residual activity at 1 uM by Kinomescan method relative to control
[17] = molecular target: Protein kinase C beta type (Homo sapiens) (UniProt P05771); test: Inhibition of PKCbeta1 (unknown origin) assessed as residual activity at 1 uM by Kinomescan method relative to control
[18] = molecular target: Protein kinase C delta type (Homo sapiens) (UniProt Q05655); test: Inhibition of PKCdelta (unknown origin) assessed as residual activity at 1 uM by Kinomescan method relative to control
[19] = molecular target: Serine/threonine-protein kinase D1 (Homo sapiens) (UniProt Q15139); test: Inhibition of wild-type human partial length PRKD1 (G551 to E870 residues) expressed in bacterial expression system assessed as residual activity at 1 uM by Kinomescan method relative to control
[20] = molecular target: Protein kinase C theta type (Homo sapiens) (UniProt Q04759); test: Inhibition of PKCtheta (unknown origin) assessed as residual activity at 1 uM by Kinomescan method relative to control
[21] = molecular target: Serine/threonine-protein kinase PLK2 (Homo sapiens) (UniProt Q9NYY3); test: Inhibition of wild-type human partial length PLK2 (H58 to F354 residues) expressed in mammalian expression system assessed as residual activity at 1 uM by Kinomescan method relative to control
[22] = molecular target: cAMP-dependent protein kinase catalytic subunit PRKX (Homo sapiens) (UniProt P51817); test: Inhibition of wild-type human partial length PRKX (M1 to F358 residues) expressed in bacterial expression system assessed as residual activity at 1 uM by Kinomescan method relative to control
[23] = molecular target: High affinity nerve growth factor receptor (Homo sapiens) (UniProt P04629); test: Inhibition of wild-type human partial length TRKA (G475 to G790 residues) expressed in mammalian expression system assessed as residual activity at 1 uM by Kinomescan method relative to control
[24] = molecular target: Serine/threonine-protein kinase WNK2 (Homo sapiens) (UniProt Q9Y3S1); test: Inhibition of wild-type human partial length WNK2 (V47 to D482 residues) expressed in mammalian expression system assessed as residual activity at 1 uM by Kinomescan method relative to control
[25] = molecular target: Serine/threonine-protein kinase LATS2 (Homo sapiens) (UniProt Q9NRM7); test: Inhibition of wild-type human partial length LATS2 (Q641 to V1088 residues) expressed in mammalian expression system assessed as residual activity at 1 uM by Kinomescan method relative to control
[26] = molecular target: Dual specificity mitogen-activated protein kinase kinase 4 (Homo sapiens) (UniProt P45985); test: Inhibition of MKK4 (unknown origin) assessed as residual activity at 1 uM by Kinomescan method relative to control
[27] = molecular target: Serine/threonine-protein kinase Nek5 (Homo sapiens) (UniProt Q6P3R8); test: Inhibition of wild-type human partial length NEK5 (M1 to M279 residues) expressed in bacterial expression system assessed as residual activity at 1 uM by Kinomescan method relative to control

Sequence of Serine/threonine-protein kinase PLK2 (Homo sapiens) (Q9NYY3 whole entry, looked up, the tested form may be a part): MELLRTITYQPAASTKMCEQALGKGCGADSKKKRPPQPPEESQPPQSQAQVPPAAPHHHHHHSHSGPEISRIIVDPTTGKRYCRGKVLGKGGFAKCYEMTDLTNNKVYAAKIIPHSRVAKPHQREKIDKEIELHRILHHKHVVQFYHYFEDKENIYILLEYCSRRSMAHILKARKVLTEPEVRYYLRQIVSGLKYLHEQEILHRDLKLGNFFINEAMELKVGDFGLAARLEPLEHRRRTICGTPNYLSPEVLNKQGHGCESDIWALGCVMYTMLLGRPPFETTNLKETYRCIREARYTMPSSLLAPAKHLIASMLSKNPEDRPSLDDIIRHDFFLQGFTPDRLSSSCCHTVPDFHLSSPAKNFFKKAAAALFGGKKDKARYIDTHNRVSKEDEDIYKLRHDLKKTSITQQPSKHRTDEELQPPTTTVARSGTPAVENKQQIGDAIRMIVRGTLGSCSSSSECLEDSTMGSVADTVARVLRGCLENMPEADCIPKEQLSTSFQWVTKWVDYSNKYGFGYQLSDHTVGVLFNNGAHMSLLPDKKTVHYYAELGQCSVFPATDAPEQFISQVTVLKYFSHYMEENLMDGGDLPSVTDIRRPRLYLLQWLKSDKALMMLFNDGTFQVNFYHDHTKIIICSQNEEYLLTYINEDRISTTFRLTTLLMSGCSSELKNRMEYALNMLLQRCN
Sequence of MAP kinase-activated protein kinase 2 (Homo sapiens) (P49137 whole entry, looked up, the tested form may be a part): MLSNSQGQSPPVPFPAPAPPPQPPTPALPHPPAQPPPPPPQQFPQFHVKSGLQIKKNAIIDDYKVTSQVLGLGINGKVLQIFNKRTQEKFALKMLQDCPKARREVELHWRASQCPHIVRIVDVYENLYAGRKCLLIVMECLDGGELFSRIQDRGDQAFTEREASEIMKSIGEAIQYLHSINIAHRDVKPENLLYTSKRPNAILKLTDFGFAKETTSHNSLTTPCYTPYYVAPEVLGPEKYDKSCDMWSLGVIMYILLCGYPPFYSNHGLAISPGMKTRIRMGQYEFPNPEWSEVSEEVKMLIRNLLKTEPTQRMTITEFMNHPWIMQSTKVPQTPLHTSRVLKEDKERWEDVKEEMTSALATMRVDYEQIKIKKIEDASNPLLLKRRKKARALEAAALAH
Sequence of Voltage-gated inwardly rectifying potassium channel KCNH2 (Q12809 whole entry, the tested form may be a part): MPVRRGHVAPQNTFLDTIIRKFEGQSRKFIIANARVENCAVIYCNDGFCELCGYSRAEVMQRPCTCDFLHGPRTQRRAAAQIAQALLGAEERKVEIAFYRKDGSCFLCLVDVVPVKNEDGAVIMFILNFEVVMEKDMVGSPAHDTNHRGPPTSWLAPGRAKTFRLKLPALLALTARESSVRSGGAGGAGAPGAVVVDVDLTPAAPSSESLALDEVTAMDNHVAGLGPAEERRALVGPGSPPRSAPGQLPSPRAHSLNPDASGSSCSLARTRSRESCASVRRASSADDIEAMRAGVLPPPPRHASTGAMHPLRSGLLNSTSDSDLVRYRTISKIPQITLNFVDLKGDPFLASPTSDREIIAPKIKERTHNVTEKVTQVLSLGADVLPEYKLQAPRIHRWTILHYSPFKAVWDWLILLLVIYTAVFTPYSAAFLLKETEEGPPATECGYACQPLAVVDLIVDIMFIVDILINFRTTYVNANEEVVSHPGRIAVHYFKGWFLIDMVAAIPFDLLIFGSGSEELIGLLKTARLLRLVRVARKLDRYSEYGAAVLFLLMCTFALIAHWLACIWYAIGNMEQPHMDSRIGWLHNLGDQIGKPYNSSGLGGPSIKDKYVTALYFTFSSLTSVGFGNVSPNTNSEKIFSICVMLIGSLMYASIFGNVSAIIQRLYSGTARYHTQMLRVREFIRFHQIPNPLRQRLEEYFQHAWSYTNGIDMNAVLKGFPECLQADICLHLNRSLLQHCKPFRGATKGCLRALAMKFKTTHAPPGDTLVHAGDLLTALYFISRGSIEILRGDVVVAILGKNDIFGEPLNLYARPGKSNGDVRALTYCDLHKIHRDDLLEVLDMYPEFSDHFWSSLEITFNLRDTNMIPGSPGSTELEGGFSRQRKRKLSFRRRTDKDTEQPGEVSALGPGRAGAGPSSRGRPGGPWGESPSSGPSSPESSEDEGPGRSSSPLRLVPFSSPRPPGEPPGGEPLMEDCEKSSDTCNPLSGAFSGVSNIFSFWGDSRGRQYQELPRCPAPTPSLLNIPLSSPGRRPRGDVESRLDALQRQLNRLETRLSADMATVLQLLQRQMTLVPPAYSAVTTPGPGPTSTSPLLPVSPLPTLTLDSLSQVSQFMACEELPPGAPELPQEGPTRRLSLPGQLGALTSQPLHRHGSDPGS
Sequence of Discoidin domain-containing receptor 2 (Homo sapiens) (Q16832 whole entry, the tested form may be a part): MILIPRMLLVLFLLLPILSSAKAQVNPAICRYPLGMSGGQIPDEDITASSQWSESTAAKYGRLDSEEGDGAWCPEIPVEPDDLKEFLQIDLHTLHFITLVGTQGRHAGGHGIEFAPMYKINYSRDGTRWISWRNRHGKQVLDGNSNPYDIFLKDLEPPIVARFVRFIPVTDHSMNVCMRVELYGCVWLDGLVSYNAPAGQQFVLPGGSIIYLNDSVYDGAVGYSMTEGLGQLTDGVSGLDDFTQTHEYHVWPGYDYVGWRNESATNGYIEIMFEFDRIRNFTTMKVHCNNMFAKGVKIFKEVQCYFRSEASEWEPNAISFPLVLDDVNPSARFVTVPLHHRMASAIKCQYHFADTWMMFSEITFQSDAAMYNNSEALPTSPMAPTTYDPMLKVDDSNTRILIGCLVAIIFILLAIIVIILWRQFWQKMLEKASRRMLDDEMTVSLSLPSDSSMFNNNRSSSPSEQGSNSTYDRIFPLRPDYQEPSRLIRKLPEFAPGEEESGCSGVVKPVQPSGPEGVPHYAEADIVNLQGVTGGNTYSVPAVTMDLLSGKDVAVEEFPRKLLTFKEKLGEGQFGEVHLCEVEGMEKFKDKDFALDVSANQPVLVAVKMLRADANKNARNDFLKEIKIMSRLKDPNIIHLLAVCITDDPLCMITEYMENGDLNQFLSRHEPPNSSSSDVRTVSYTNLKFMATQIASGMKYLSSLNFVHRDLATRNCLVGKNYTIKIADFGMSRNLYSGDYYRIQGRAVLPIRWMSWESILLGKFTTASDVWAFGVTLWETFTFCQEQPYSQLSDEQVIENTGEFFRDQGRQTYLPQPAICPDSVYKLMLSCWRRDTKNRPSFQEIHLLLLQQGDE
Sequence of Mast/stem cell growth factor receptor Kit (Homo sapiens) (P10721 whole entry, the tested form may be a part): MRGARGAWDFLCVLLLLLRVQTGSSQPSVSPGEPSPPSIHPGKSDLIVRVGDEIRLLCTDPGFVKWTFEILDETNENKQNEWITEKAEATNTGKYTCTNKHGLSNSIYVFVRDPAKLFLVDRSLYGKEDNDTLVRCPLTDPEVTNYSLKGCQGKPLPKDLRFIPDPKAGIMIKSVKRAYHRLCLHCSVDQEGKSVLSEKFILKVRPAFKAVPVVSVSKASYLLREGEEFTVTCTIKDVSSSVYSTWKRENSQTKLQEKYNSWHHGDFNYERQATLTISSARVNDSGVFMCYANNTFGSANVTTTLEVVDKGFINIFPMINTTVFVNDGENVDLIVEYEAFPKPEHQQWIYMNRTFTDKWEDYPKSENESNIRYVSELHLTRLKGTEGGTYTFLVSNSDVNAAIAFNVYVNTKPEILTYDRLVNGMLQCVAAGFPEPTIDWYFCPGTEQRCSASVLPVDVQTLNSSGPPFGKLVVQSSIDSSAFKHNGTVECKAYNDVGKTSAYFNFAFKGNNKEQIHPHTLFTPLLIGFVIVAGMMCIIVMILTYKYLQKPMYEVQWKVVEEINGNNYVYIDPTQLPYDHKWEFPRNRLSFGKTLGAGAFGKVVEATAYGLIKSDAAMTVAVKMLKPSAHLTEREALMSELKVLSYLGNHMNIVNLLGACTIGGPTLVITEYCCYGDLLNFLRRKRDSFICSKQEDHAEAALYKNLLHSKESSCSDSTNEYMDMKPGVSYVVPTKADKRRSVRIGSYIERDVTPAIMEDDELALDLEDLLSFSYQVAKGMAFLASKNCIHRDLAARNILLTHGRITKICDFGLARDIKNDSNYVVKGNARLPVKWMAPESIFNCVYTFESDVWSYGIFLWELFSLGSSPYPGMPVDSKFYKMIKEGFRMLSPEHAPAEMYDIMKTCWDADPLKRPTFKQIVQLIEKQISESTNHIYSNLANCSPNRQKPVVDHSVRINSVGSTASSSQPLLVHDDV
Sequence of CDK1/Cyclin A (Homo sapiens) (P06493 whole entry, looked up, the tested form may be a part): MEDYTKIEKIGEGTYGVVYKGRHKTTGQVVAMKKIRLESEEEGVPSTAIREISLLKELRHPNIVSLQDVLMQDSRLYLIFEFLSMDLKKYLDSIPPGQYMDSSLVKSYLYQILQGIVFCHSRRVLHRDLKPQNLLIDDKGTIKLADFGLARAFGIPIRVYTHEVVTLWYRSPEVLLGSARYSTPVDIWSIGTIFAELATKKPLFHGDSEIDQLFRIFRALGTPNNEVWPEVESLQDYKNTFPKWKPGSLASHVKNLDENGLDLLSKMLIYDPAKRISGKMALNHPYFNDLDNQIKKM
Sequence of CDK1/Cyclin A (Homo sapiens) (P20248 whole entry, looked up, the tested form may be a part): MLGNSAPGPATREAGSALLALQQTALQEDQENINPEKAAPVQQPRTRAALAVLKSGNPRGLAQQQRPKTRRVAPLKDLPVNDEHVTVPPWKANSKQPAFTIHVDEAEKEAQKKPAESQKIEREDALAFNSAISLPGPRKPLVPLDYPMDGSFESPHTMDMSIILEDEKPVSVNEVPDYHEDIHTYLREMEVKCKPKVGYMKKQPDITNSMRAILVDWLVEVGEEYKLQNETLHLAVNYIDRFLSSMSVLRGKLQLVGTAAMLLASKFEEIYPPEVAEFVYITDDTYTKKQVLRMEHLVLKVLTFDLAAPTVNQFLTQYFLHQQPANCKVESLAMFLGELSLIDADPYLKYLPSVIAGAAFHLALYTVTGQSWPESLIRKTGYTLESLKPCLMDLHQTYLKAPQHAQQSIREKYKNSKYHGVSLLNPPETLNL

## CCOc1nc(Nc2ccc(C(=O)N3CCOCC3)cc2OC)nc2[nH]ccc12
[1]
  IC50: > 63.1 µM
[2]
  Activity: 84.5%
[3]
  Activity: 98.6%
[4]
  Activity: 99%
[5]
  Activity: 91.4%
[6]
  Activity: 92.1%
[7]
  Activity: 92.3%
[8]
  Activity: 95.7%
[9]
  Activity: 100%
[10]
  Activity: 94.4%
[11]
  Activity: 95.7%
[12]
  Activity: 83.7%
[13]
  Activity: 104%
[14]
  Activity: 90.2%
[15]
  Activity: 88.8%
[16]
  Activity: 91.6%
[17]
  Activity: 100%
[18]
  Activity: 99.8%
[19]
  Activity: 46.9%
[20]
  Activity: 83.7%
[21]
  Activity: 89.4%
[22]
  Activity: 99.8%
[23]
  Activity: 105%
[24]
  Activity: 90.4%
[25]
  Activity: 96.3%
[26]
  Activity: 107%
[27]
  Activity: 94.8%
